According to paper PMC12136037, “Type II kinase inhibitors that target Parkinson’s disease–associated LRRK2” (Science Advances, 2025):

Key:
Test in all cases: DSF 100 kinase selectivity screen;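 note: compound tested at 20 µM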
Format in all cases: binding
[1] = biological target: T1, ~100 representative kinases (Homo sapiens, UniProt P55201); details: Protein BRPF1; average of three replicates
T1 construct: Recombinant protein kinase domains with a concentration of 2 μM
T1 sequence (P55201 1-1214): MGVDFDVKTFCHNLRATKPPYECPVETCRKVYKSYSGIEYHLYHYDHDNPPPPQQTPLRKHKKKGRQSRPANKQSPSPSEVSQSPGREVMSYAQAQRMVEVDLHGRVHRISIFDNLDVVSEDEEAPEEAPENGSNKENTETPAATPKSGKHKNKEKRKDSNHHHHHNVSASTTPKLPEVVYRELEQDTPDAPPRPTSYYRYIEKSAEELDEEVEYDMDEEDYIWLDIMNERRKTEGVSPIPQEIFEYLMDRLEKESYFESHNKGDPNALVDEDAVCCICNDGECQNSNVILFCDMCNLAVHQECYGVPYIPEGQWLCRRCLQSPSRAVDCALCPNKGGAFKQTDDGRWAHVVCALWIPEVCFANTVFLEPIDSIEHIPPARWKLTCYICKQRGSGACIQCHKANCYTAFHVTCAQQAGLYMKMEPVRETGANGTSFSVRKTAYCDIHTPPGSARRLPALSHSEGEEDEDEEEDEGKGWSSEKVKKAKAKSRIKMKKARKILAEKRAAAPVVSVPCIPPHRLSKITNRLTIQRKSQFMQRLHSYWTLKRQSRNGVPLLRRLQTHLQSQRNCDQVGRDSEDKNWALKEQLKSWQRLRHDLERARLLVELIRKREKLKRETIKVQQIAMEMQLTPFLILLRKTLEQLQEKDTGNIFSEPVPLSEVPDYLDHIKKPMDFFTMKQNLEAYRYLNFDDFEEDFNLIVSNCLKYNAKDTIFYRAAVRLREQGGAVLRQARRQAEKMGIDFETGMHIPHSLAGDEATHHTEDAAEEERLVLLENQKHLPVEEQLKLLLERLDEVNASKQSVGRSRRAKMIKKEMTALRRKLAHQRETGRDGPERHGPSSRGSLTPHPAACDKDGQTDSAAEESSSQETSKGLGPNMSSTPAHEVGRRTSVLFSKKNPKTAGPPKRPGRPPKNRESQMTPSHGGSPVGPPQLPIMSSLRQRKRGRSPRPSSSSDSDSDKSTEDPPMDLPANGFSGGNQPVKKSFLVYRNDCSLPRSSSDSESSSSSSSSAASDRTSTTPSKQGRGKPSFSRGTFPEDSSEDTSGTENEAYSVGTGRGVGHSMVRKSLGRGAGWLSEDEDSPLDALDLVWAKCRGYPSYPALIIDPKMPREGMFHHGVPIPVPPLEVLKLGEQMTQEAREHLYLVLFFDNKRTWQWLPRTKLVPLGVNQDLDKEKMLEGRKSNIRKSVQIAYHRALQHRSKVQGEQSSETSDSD
In short: (§1)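 Each kinase domain, at 2 μM, is mixed with 20 μM test compound and SYPRO Orange in Hepes (20 mM, pH 7.5) with 500 mM NaCl. Temperature is then raised at 3°C/min and fluorescence-monitored unfolding yields the melting temperature change, ΔTm in degrees Celsius.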

[2] = biological target: T2, ~100 representative kinases (Homo sapiens, UniProt O00444); details: protein PLK4; average of three replicates
T2 construct: Recombinant protein kinase domains with a concentration of 2 μM
T2 sequence (O00444 1-970): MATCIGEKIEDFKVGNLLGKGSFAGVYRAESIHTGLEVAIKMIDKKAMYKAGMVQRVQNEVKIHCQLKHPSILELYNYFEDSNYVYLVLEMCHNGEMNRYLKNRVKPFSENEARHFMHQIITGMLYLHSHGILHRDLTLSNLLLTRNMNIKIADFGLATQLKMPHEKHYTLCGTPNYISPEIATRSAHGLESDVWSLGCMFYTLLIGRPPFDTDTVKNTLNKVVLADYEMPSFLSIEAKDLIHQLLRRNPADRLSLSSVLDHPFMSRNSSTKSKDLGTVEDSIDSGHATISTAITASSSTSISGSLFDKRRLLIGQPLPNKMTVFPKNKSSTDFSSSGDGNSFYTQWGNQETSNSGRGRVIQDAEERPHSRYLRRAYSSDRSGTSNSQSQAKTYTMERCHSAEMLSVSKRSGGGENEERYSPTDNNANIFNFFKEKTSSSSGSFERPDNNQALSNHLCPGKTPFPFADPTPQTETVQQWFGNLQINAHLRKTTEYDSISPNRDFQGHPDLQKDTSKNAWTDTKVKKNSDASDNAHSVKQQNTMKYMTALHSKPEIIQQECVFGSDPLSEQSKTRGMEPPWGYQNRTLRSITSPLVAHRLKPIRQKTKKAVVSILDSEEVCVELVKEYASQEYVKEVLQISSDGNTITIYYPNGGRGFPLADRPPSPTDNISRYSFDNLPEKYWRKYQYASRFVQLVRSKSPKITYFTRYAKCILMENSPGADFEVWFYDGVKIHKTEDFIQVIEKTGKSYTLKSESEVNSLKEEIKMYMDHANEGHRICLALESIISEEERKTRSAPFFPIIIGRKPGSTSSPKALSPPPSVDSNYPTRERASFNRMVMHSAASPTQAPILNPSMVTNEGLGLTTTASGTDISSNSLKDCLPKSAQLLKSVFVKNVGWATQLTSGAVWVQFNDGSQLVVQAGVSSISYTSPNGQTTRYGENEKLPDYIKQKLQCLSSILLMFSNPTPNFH
In short: as §1

[3] = biological target: T3, ~100 representative kinases (Homo sapiens, UniProt Q16566); details: Protein CAMK4; average of three replicates
T3 construct: Recombinant protein kinase domains with a concentration of 2 μM
T3 sequence (Q16566 1-473): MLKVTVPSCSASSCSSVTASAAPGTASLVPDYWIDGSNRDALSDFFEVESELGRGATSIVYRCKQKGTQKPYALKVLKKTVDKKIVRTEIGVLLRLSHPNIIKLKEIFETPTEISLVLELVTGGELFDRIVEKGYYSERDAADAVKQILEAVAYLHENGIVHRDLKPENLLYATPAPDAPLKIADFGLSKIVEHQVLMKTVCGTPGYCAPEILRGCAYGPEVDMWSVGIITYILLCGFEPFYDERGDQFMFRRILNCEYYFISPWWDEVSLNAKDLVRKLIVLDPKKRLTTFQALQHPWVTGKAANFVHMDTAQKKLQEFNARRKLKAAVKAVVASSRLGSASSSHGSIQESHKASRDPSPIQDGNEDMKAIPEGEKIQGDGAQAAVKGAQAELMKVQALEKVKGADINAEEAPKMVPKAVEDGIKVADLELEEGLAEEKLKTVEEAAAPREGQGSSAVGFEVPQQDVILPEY
In short: as §1

Row | Structure (SMILES) | dTm [1] [K] | dTm [2] [K] | dTm [3] [K]
1 | Cn1cc(-c2c[nH]c3ncnc(N4CCOCC4)c23)cc1C#N [PFE-360] | -1.30 | 4.43 | 0.56
2 | Cc1ccc(C(=O)Nc2ccc(CN3CCN(C)CC3)c(C(F)(F)F)c2)cc1C#Cc1c[nH]c2ncnc(N3CCOCC3)c12 [Compound 1] | -0.28 | 6.48 | 1.39
3 | O=C(Nc1cccc(-c2c[nH]c3ncnc(N4CCOCC4)c23)c1)C1(C(=O)Nc2ccc(F)c(F)c2)CC1 [Compound 17] | 0.79 | 9.62 | 1.60
4 | Cc1ccc(C(=O)Nc2ccc(CN3CCN(C)CC3)c(C(F)(F)F)c2)cc1C#Cc1cnc2[nH]ncc2c1 [GZD-824, reference compound] | -0.65 | 2.97 | 0.32

Results, then the compound that gave them:

Row | dTm [1] [K] | dTm [2] [K] | dTm [3] [K] | Structure (SMILES)
5 | -1.63 | 10.15 | 1.63 | COc1cc(C(=O)N2CCOCC2)c(F)cc1Nc1nc(N(C)C)c2c(Cl)c[nH]c2n1 [Compound 36]
6 | 0.57 | 3.84 | 3.69 | CC(C)(C)c1cc(NC(=O)Nc2cccc(-c3c[nH]c4ncnc(N5CCOCC5)c34)c2)n(-c2ccc3ncccc3c2)n1 [Compound 28]
7 | 1.47 | 7.28 | 3.34 | O=C(Nc1cccc(-c2c[nH]c3ncnc(N4CCOCC4)c23)c1)C1(C(=O)Nc2ccc(F)c(Cl)c2)CC1 [Compound 18]
8 | 2.17 | 0.00 | 4.72 | O=C(Nc1cccc(-c2c[nH]c3ncnc(N4CCOCC4)c23)c1)C1(C(=O)Nc2ccc(F)c(Br)c2)CC1 [Compound 19]
9 | 0.26 | 12.28 | 4.77 | Cc1cc(NC(=O)C2(C(=O)Nc3cccc(-c4c[nH]c5ncnc(N6CCOCC6)c45)c3)CC2)ccc1F [Compound 20]
